Laboratory results reported in ChEMBL document CHEMBL1158402, “Homology modeling of MCH1 receptor and validation by docking/scoring and protein-aligned CoMFA” (Eur J Med Chem, 2009).
pKi: −log10 of the molar value.

Molecular target: Melanin-concentrating hormone receptor 1 (Homo sapiens, UniProt Q99705)
Test: Binding affinity to MCH1 receptor

Chain of Melanin-concentrating hormone receptor 1 (Q99705 whole entry): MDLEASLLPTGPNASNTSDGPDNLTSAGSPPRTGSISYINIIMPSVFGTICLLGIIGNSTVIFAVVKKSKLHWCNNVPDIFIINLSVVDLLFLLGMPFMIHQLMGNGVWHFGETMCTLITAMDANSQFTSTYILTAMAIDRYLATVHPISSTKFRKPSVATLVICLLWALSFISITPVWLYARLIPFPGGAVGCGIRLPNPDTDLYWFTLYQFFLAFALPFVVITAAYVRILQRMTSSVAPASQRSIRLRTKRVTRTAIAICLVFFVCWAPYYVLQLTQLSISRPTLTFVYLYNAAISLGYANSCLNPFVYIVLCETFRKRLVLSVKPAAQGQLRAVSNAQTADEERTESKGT

Row | Compound | pKi
1 | Cc1ccc(CN2CCC(=Cc3ccc(C(=O)N[C@H](C)c4ccc(Br)cc4)cc3)CC2)c2ccccc12 | 5.85
2 | C[C@@H](NC(=O)c1ccc(CC2CCN(Cc3ccc4c(c3)OCO4)CC2)cc1)c1ccccc1 | 5.46
3 | COc1cccc([C@@H](C)NC(=O)c2ccc(CC3CCN(Cc4ccc5c(c4)OCO5)CC3)cc2)c1 | 6.58
4 | C[C@@H](NC(=O)c1ccc(CC2CCN(Cc3ccc4c(c3)OCO4)CC2)cc1)c1ccc(Cl)cc1 | 6.97
5 | CC[C@@H](NC(=O)c1ccc(CC2CCN(Cc3ccc4c(c3)OC(F)(F)O4)CC2)cc1)c1ccc(I)cc1 | 6.10
6 | CC[C@@H](NC(=O)c1ccc(CC2CCN(Cc3ccc4cncnc4c3)CC2)cc1)c1ccc(I)cc1 | 7.52
7 | CC[C@@H](NC(=O)c1ccc(CC2CCN(Cc3ccc4cccnc4c3)CC2)cc1)c1ccc(I)cc1 | 8.30
8 | C[C@@H](NC(=O)c1ccc(C=C2CCN(Cc3ccco3)CC2)cc1)c1ccc(Br)cc1 | 4.81
9 | O=C(N[C@@H]1CCc2ccccc21)c1ccc(CC2CCN(Cc3ccc4c(c3)OCO4)CC2)cc1 | 5.33
10 | COc1ccccc1[C@@H](C)NC(=O)c1ccc(CC2CCN(Cc3ccc4c(c3)OCO4)CC2)cc1 | 5.69
11 | C[C@@H](NC(=O)c1ccc(CC2CCN(Cc3ccc4c(c3)OCO4)CC2)cc1)c1ccc(I)cc1 | 7.29
12 | Cc1ccc([C@@H](C)NC(=O)c2ccc(CC3CCN(Cc4ccc5c(c4)OCO5)CC3)cc2)cc1 | 5.97
13 | CC[C@@H](NC(=O)c1ccc(CC2CCN(Cc3ccc4ccccc4n3)CC2)cc1)c1ccc(I)cc1 | 6.51
14 | C[C@@H](NC(=O)c1ccc(C=C2CCN(Cc3ccccc3)CC2)cc1)c1ccc(Br)cc1 | 5.59
15 | C[C@@H](NC(=O)c1ccc(C=C2CCN(CC3CCCCC3)CC2)cc1)c1ccc(Br)cc1 | 4.93
16 | CC(NC(=O)c1ccc(CC2CCN(Cc3ccc4c(c3)OCO4)CC2)cc1)c1ccccc1 (stereo not drawn) | 5.38
17 | Cc1ccccc1CNC(=O)c1ccc(CC2CCN(Cc3ccc4c(c3)OCO4)CC2)cc1 | 5.03
18 | CCC[C@@H](NC(=O)c1ccc(CC2CCN(Cc3ccc4c(c3)OCO4)CC2)cc1)c1ccc(I)cc1 | 6.72
19 | CC[C@@H](NC(=O)c1ccc(CC2CCN(Cc3ccc4nccnc4c3)CC2)cc1)c1ccc(I)cc1 | 7.40
20 | C[C@@H](NC(=O)c1ccc(CN2CCN(Cc3ccc4c(c3)OCO4)CC2)cc1)c1ccc(Br)cc1 | 5.71
21 | CC1CN(Cc2ccc3c(c2)OCO3)CCN1Cc1ccc(C(=O)N[C@@H](C)c2ccc(Br)cc2)cc1 (stereo partly drawn) | 5.34
22 | C[C@@H](NC(=O)c1ccc(CC2CCN(Cc3ccc4c(c3)OCO4)CC2)cc1)C1CCCCC1 | 5.45
23 | C[C@@H](NC(=O)c1ccc(C=C2CCN(Cc3ccc(-c4ccccc4)cc3)CC2)cc1)c1ccc(Br)cc1 | 5.29
24 | CC(c1ccc(C(=O)N[C@@H](C)c2ccc(Br)cc2)cc1)N1CCN(Cc2ccc3c(c2)OCO3)CC1 (stereo partly drawn) | 5.63
25 | COc1ccc(CN2CCC(=Cc3ccc(C(=O)N[C@H](C)c4ccc(Br)cc4)cc3)CC2)cc1 | 6.83
26 | O=C(Cc1ccc2c(c1)CCO2)c1ccc(CC2CCN(Cc3ccc4c(c3)OCO4)CC2)cc1 | 6.88
27 | CC[C@@H](NC(=O)c1ccc(CC2CCN(Cc3ccc4c(c3)OCO4)CC2)cc1)c1ccc(I)cc1 | 7.70
28 | O=C(NCc1ccccc1)c1ccc(CC2CCN(Cc3ccc4c(c3)OCO4)CC2)cc1 | 5.25
